Laboratory results reported in patent US20240124408A1 (Sanofi, priority 2020, published 2024).

Legend:
Assay type in all cases: cell-based
human TRPM8 [1] = target: T1, human TRPM8 (Homo sapiens, UniProt Q7Z2W7); test: In vitro human TRPM8 fluorescence calcium flux assay (recombinant CHO cells, Fluo4-AM, FDSS6000); conditions: recombinant CHO cells expressing human TRPM8; menthol-related EC50, normalized to 100 μM menthol
T1 construct: expressed in transfected cells; host or cells: CHO (p658 mammalian expression vector)
T1 sequence (Q7Z2W7 whole entry): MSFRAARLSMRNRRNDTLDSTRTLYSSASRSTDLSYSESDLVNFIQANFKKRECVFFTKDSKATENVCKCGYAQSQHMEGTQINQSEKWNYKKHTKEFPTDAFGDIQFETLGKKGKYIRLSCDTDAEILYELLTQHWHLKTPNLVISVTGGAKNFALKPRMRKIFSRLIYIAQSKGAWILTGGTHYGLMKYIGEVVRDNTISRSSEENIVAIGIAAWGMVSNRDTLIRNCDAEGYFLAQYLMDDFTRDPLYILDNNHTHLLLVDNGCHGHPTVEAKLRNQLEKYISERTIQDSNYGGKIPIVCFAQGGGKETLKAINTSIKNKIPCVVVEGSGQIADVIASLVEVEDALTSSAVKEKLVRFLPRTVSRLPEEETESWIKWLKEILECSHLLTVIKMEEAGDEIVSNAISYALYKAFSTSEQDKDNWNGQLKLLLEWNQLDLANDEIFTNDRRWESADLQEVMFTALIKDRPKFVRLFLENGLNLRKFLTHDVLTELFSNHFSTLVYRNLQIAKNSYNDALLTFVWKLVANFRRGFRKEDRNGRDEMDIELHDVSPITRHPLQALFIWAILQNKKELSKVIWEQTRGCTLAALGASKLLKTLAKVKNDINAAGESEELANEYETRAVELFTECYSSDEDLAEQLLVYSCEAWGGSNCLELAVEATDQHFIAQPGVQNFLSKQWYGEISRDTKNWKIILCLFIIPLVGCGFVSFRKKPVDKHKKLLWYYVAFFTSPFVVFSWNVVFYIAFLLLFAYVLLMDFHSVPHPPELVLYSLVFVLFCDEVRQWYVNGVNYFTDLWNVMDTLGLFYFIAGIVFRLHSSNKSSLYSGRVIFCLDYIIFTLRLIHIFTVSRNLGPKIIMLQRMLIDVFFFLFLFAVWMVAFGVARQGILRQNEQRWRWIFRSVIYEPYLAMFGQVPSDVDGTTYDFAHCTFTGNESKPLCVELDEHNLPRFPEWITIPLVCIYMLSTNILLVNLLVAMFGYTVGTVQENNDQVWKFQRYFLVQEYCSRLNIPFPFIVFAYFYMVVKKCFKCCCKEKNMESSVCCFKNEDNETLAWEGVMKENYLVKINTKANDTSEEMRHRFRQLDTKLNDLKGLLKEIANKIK
Procedure, shortened: (§1)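 Agonist EC50 values come from sixteen-point dose responses normalized to the 100 μM menthol maximum, fitted sigmoidally. Calcium rise was followed for 3 min post-addition in recombinant CHO lines (human or pig TRPM8). Cells were dye-loaded with 2 μM Fluo4-AM, 1 h at room temperature, probenecid-containing HBSS.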

human TRPM8 [2] = target: T1, human TRPM8; test: In vitro human TRPM8 automated patch-clamp assay (SyncroPatch 384PE, CHO cells); conditions: CHO cells expressing human TRPM8, 28° C.
Procedure: (§2) In Vitro Pig and Human TRPM8 Automated Patch-Clamp Assays
(§3) Automated whole-cell recordings of compound effects were performed on the SyncroPatch 384PE (Nanion Technologies, Munich, Germany) incorporated into a Biomek FX pipetting robot (Beckman Coulter, Jersey City, NJ, USA) using the same engineered CHO cell lines expressing human or pig TRPM8 channels. Data acquisition and analysis were performed with the proprietary software PatchControl 384 and DataControl 384, respectively (Nanion Technologies, Munich, Germany). All recordings were carried out using planar borosilicate glass patch clamp chips in a 384-microtiter plate format with patch hole resistances of 2-4 MO. For recordings, standard intracellular solution was used containing (in mM): 130 KF, 4 NaCl, 1 MgCl2, 0.5 CaCl2, 10 HEPES and 10 EGTA/KOH (pH 7.2) and standard extracellular solution contained in mM: 150 NaCl, 4 KCl, 0.5 CaCl2, 1 MgCl2 and 10 HEPES (pH 7.3).
(§4) Prior to the electrophysiological measurements, cells were harvested using Accutase (GIBCO, Fisher Scientific) and resuspended in warmed extracellular solution. The cell suspension was kept in the dedicated cell reservoir at 28° C. at a 1 million/ml cell density and shaken at 500 rounds per min (rpm). Experiments were performed at 28° C. throughout. Cells were distributed in high resistance 4-holes-per-well Nanion chips where they were caught on the patch holes by application of a −80 mbar pressure. The cell membrane was ruptured to obtain the whole-cell configuration with a pressure pulse of −250 mbar for 2 seconds. Voltage protocols were constructed using PatchControl 384. The cells were held at a holding potential of −60 mV and TRPM8 currents were recorded using a ramp protocol from −80 to +80 mV every 5 seconds before and after compound addition. Resulting currents were recorded at both −80 and +80 mV and current kinetics were exported and analyzed. From each plate, control wells with 200 μM menthol were recorded to validate the assay. One concentration of compound was applied to each of the other wells. For each concentration, compound response was determined by subtracting the baseline current recorded before compound addition from the maximum peak elicited currents obtained after compound addition. Then, each compound response was normalized to control condition without compound and maximum current (Emax) obtained for each compound. Nanion DataControl 384 software plotted current response for each compound concentration and was able to calculate an EC50 value for each active compound.

pig TRPM8 [3] = target: T2, pig TRPM8 (Sus scrofa, UniProt F1SM15); test: In vitro pig TRPM8 fluorescence calcium flux assay (recombinant CHO cells, Fluo4-AM, FDSS6000); conditions: recombinant CHO cells expressing pig TRPM8; menthol-related EC50, normalized to 100 μM menthol
T2 construct: expressed in transfected cells; host or cells: CHO (pcDNA5/FRT/TO vector; hygromycin B and blasticidin selection)
T2 sequence (F1SM15 1-1104): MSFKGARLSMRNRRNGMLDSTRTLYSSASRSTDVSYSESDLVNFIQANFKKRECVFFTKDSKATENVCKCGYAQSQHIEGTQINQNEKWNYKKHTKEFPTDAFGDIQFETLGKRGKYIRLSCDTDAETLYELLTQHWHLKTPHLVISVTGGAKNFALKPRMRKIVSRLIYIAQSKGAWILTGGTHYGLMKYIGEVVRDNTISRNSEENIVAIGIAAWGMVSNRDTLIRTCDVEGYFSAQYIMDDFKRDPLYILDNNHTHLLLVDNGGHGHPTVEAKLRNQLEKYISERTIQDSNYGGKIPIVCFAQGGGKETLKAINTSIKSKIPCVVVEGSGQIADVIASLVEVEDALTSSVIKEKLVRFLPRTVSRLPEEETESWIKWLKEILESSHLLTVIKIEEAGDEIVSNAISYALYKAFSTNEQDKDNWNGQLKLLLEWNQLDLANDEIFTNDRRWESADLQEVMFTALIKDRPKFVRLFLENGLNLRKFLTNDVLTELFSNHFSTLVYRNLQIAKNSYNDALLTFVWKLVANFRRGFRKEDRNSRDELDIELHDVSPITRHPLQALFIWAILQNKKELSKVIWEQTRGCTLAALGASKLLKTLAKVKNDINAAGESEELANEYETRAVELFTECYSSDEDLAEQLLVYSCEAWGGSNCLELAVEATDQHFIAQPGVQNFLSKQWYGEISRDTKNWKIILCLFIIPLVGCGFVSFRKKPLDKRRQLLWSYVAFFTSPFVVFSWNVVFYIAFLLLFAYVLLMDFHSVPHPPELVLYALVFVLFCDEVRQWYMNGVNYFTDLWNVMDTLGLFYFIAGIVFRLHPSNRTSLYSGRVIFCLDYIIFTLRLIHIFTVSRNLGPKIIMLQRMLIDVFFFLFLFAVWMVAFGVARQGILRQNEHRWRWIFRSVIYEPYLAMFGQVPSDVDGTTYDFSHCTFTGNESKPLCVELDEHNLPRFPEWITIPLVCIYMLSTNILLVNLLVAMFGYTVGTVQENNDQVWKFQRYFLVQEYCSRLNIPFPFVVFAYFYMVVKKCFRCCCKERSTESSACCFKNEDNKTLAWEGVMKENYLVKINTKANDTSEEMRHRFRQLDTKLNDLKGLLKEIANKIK
Procedure, shortened: as §1

pig TRPM8 [4] = target: T2, pig TRPM8; test: In vitro pig TRPM8 automated patch-clamp assay (SyncroPatch 384PE, CHO cells); conditions: CHO cells expressing pig TRPM8, 28° C.
Procedure: as §2, §3, §4

SMILES	EC50 (human TRPM8 [1]) [nM]	EC50 (human TRPM8 [2]) [nM]	EC50 (pig TRPM8 [3]) [nM]	EC50 (pig TRPM8 [4]) [nM]
CC(CNC(=O)[C@]1(O)C[C@H](C)CC[C@H]1C(C)C)c1ccccc1 (stereo partly drawn) [Example 156, (1S,2S,5R)-1-hydroxy-2-isopropyl-5-methyl-N-(2-phenylpropyl)cyclohexanecarboxamide]	42.4	1800	21.5	1900
CC(C)[C@@H]1CC[C@@H](C)C[C@@]1(O)C(=O)NCC(NC(=O)CN)c1ccccc1 (single isomer, unassigned) [Example 183]	2.7	120	2.8	20
CC(C)[C@@H]1CC[C@@H](C)C[C@@]1(O)C(=O)NCC1(O)CCc2ccc(Cl)cc21 (stereo partly drawn) [Example 145, (1S,2S,5R)-N-[(6-chloro-1-hydroxy-indan-1-yl)methyl]-1-hydroxy-2-isopropyl-5-methyl-cyclohexanecarboxamide]	2.9	230	2.7	515
CC(C)[C@@H]1CC[C@@H](C)C[C@@]1(O)C(=O)NCC(=O)Oc1ccccc1 [Example 67, phenyl ((1S,2S,5R)-1-hydroxy-2-isopropyl-5-methylcyclohexane-1-carbonyl)glycinate]	9	2700	5	3360
CC(C)[C@@H]1CC[C@@H](C)C[C@@]1(O)C(=O)NC[C@H](F)c1ccccc1 [Example 179, (1S,2S,5R)—N-((2R)-2-fluoro-2-phenylethyl)-1-hydroxy-2-isopropyl-5-methylcyclohexane-1-carboxamide]	1.1	590	0.6	598
CC(C)[C@@H]1CC[C@@H](C)C[C@@]1(O)C(=O)NCC(CCO)c1ccccc1 (stereo partly drawn) [Example 66, (1S,2S,5R)-1-hydroxy-N-(4-hydroxy-2-phenylbutyl)-2-isopropyl-5-methylcyclohexane-1-carboxamide]	51	3700	75	6060
Cc1cccc(CCNC(=O)[C@]2(O)C[C@H](C)CC[C@H]2C(C)C)c1 [Example 58, (1S,2S,5R)-1-hydroxy-2-isopropyl-5-methyl-N-(3-methylphenethyl)cyclohexane-1-carboxamide]	5.2	1030	2.2	887
COc1cc(CO)ccc1OC(=O)CNC(=O)[C@]1(O)C[C@H](C)CC[C@H]1C(C)C [Example 79, 4-(hydroxymethyl)-2-methoxyphenyl ((1S,2S,5R)-1-hydroxy-2-isopropyl-5-methylcyclohexane-1-carbonyl)glycinate]	84.5	5500	57.6	5160
CC(C)[C@@H]1CC[C@@H](C)C[C@@]1(O)C(=O)NCCc1ccccc1CCN [Example 53, (1S,2S,5R)—N-(2-(2-aminoethyl)phenethyl)-1-hydroxy-2-isopropyl-5-methylcyclohexane-1-carboxamide]	2.4	200	2.6	326
CC(C)[C@@H]1CC[C@@H](C)C[C@@]1(O)C(=O)NCCc1ccccc1OCCN [Example 6, (1S,2S,5R)—N-(2-(2-aminoethoxy)phenethyl)-1-hydroxy-2-isopropyl-5-methylcyclohexane-1-carboxamide]	0.3	72	0.5	237
CC(C)[C@@H]1CC[C@@H](C)C[C@@]1(O)C(=O)NCCOC(=O)c1ccccc1 [Example 111, 2-((1S,2S,5R)-1-hydroxy-2-isopropyl-5-methylcyclohexane-1-carboxamido)ethyl benzoate]	72.7	5100	25.1	5070
COC(=O)COc1ccccc1CCNC(=O)[C@]1(O)C[C@H](C)CC[C@H]1C(C)C [Example 61, methyl 2-(2-(2-((1S,2S,5R)-1-hydroxy-2-isopropyl-5-methylcyclohexane-1-carboxamido)ethyl)phenoxy)acetate]	11.1	2910	7.4	5050
COC(=O)CCc1ccccc1CCNC(=O)[C@]1(O)C[C@H](C)CC[C@H]1C(C)C [Example 93, methyl 3-(2-(2-((1S,2S,5R)-1-hydroxy-2-isopropyl-5-methylcyclohexane-1-carboxamido)ethyl)phenyl)propanoate]	49.3	2800	67.8	2000
COC(=O)[C@@H](N)Cc1cccc(CCNC(=O)[C@]2(O)C[C@H](C)CC[C@H]2C(C)C)c1 [Example 20, methyl (S)-2-amino-3-(3-(2-((1S,2S,5R)-1-hydroxy-2-isopropyl-5-methylcyclohexane-1-carboxamido)ethyl)phenyl)propanoate]	3.2	1400	6.6	1420
CC(C)[C@@H]1CC[C@@H](C)C[C@@]1(O)C(=O)NCC(O)c1cccc(CO)c1 (stereo partly drawn) [Example 37, (1S,2S,5R)-1-hydroxy-N-(2-hydroxy-2-(3-(hydroxymethyl)phenyl)ethyl)-2-isopropyl-5-methylcyclohexane-1-carboxamide]	17	3100	11	2360
CC(C)[C@@H]1CC[C@@H](C)C[C@@]1(O)C(=O)NCCc1cccc(CO)c1 [Example 15, (1S,2S,5R)-1-hydroxy-N-(3-(hydroxymethyl)phenethyl)-2-isopropyl-5-methylcyclohexane-1-carboxamide]	3	1430	2.1	1510
CC(C)[C@@H]1CC[C@@H](C)C[C@@]1(O)C(=O)NCC(C)(O)c1ccccc1 (stereo partly drawn) [Example 164, (1S,2S,5R)-1-hydroxy-N-(2-hydroxy-2-phenyl-propyl)-2-isopropyl-5-methyl-cyclohexanecarboxamide]	34.3	2200	21.2	1040
COC(=O)C(CNC(=O)[C@]1(O)C[C@H](C)CC[C@H]1C(C)C)c1ccccc1 (some centres unmarked) [Example 69]	46	1930	42	1580
CC(C)[C@@H]1CC[C@@H](C)C[C@@]1(O)C(=O)NC[C@@H](O)c1cccc(CO)c1 [Example 44, (1S,2S,5R)-1-hydroxy-N-((2S)-hydroxy-2-(3-(hydroxymethyl)phenyl)ethyl)-2-isopropyl-5-methylcyclohexane-1-carboxamide]	34.9	1800	10.6	711
CCOC(=O)c1cccc(CCNC(=O)[C@]2(O)C[C@H](C)CC[C@H]2C(C)C)c1 [Example 28, ethyl 3-(2-((1S,2S,5R)-1-hydroxy-2-isopropyl-5-methylcyclohexane-1-carboxamido)ethyl)benzoate]	250	1440	311	5400
COC(=O)[C@@H](N)Cc1ccccc1CCNC(=O)[C@]1(O)C[C@H](C)CC[C@H]1C(C)C [Example 19, methyl (S)-2-amino-3-(2-(2-((1S,2S,5R)-1-hydroxy-2-isopropyl-5-methylcyclohexane-1-carboxamido)ethyl)phenyl)propanoate]	7.1	1700	19.9	1520
CC(=O)O[C@H](CNC(=O)[C@]1(O)C[C@H](C)CC[C@H]1C(C)C)c1ccccc1 [Example 3, (S)-2-((1S,2S,5R)-1-hydroxy-2-isopropyl-5-methylcyclohexane-1-carboxamido)-1-phenylethyl acetate]	36.8	1120	35.5	9910
CC(C)[C@@H]1CC[C@@H](C)C[C@@]1(O)C(=O)NCCc1ccccn1 [Example 125, (1S,2S,5R)-1-hydroxy-2-isopropyl-5-methyl-N-[2-(2-pyridyl)ethyl]cyclohexanecarboxamide]	42.3	5900	15.2	7740
